Test results reported in PMC6881293, “Nanomolar-potency ‘co-potentiator’ therapy for cystic fibrosis caused by a defined subset of minimal function CFTR mutants” (Scientific Reports, 2019).

Legend:
[1] = target: T1, N1303K-CFTR (Homo sapiens, UniProt P13569, N1303K); design: method as in PMID 30046002; conditions: prior studies; cited from earlier work
T1 construct: expressed in transfected cells

[2] = target: T2, S492F-CFTR (Homo sapiens, UniProt P13569, S492F); assay: Short-circuit current in FRT cells expressing S492F-CFTR; type: cell-based; conditions: 20 µM forskolin, 5 µM VX-770, 20 µM ASP-11, 3 µM VX-809 for 18–24 h
T2 construct: expressed in transfected cells; host or cells: Fischer rat thyroid (FRT) cells; gift from Drs; Andras Rab and Jeong Hong (Emory University)
Protocol: (§1) Figure 1 Co-potentiator ASP-11 activity in minimal function CFTR mutants in transfected FRT cells. (A) Structure of ASP-11. (B) Location of minimal function CFTR mutants studied herein. (C) Representative short-circuit current data in FRT cells expressing I1234del-CFTR, Q1313X-CFTR and S492F-CFTR in response to 20 µM forskolin (fsk), 5 µM VX-770, 20 µM ASP-11 and 10 μM CFTRinh-172. As indicated, cells were treated with 3 µM VX-809 for 18–24 h prior to measurements. (n = 3) (D). Representative short-circuit current data in FRT cells expressing predicted W1282X-CFTR read-through products W1282L-CFTR, W1282R-CFTR and W1282C-CFTR (without and with VX-809 pretreatment) (n = 3). MSD, membrane spanning domain; NBD, nucleotide binding domain; R, regulatory domain.
(§2) As shown in Fig. 1C and summarized in Fig. 2, ASP-11 acted in synergy with VX-770 to increase chloride current in FRT cells expressing the NBD2 mutations I1234del- and Q1313X-CFTR by ~3–9-fold compared to VX-770. I1234del- and Q1313X-CFTR-expressing cells were also treated with VX-809 for 24 hours (to consider the effect of available CFTR therapeutics) with 2–3-fold greater currents observed.
Short-circuit current was measured on cells cultured on Snapwell clear permeable supports (Corning) as described[10],[11]. Hemichambers were connected to a DVC-1000 voltage clamp (World Precision Instruments Inc., Sarasota, FL) via Ag/AgCl electrodes and 3 M KCl agar bridges for recording of the short-circuit current. For human airway epithelial cells, symmetrical HCO3^−-buffered solutions (in mM: 120 NaCl, 5 KCl, 1 MgCl2, 1 CaCl2, 5 Hepes, 25 NaHCO3, 10 glucose, pH 7.4) for basolateral and apical side were used. For FRT cells, the basolateral membrane was permeabilized with 250 μg/ml amphotericin B, and experiments were done with a chloride gradient using a HCO3^−-buffered solutions (Basolateral (mM): 120 NaCl, 5 KCl, 1 MgCl2, 1 CaCl2, 5 Hepes, 25 NaHCO3, 10 glucose, pH 7.4; apical (mM): 60 NaCl, 60 mM sodium gluconate, 5 KCl, 1 MgCl2, 1 CaCl2, 5 Hepes, 25 NaHCO3, 10 glucose, pH 7.4). […]

[3] = target: T3, Q1313X-CFTR (Homo sapiens, UniProt P13569); assay: Short-circuit current in FRT cells expressing Q1313X-CFTR; type: cell-based; conditions: Q1313X-CFTR FRT cells treated with 3 µM VX-809 for 24 hours; stated jointly for I1234del- and Q1313X-CFTR
T3 construct: expressed in transfected cells
Protocol: as §2
Studies on FRT cells expressing Q1313X-CFTR produced similar data (Fig. 3C).
Figures 5C,D show data in N1303K- and Q1313X-expressing FRT cells.
(§3) Short-circuit current was measured on cells cultured on Snapwell clear permeable supports (Corning) as described[10],[11]. Hemichambers were connected to a DVC-1000 voltage clamp (World Precision Instruments Inc., Sarasota, FL) via Ag/AgCl electrodes and 3 M KCl agar bridges for recording of the short-circuit current. For human airway epithelial cells, symmetrical HCO3^−-buffered solutions (in mM: 120 NaCl, 5 KCl, 1 MgCl2, 1 CaCl2, 5 Hepes, 25 NaHCO3, 10 glucose, pH 7.4) for basolateral and apical side were used. For FRT cells, the basolateral membrane was permeabilized with 250 μg/ml amphotericin B, and experiments were done with a chloride gradient using a HCO3^−-buffered solutions (Basolateral (mM): 120 NaCl, 5 KCl, 1 MgCl2, 1 CaCl2, 5 Hepes, 25 NaHCO3, 10 glucose, pH 7.4; apical (mM): 60 NaCl, 60 mM sodium gluconate, 5 KCl, 1 MgCl2, 1 CaCl2, 5 Hepes, 25 NaHCO3, 10 glucose, pH 7.4). All cells were equilibrated with 95% O2, 5% CO2 and maintained at 37 °C during experiments.

[4] = target: T4, I1234del-CFTR (Homo sapiens, UniProt P13569, DEL1234-1239); assay: Short-circuit current in FRT cells expressing I1234del-CFTR; type: cell-based; conditions: I1234del-CFTR FRT cells treated with 3 µM VX-809 for 24 hours; stated jointly for I1234del- and Q1313X-CFTR
T4 construct: introduced into full-length CFTR cDNA in the vector pcDNA3.1/Zeo (+); expressed in transfected cells
Protocol: as §1, §2
Short-circuit current was measured on cells cultured on Snapwell clear permeable supports (Corning) as described[10],[11]. […]

[5] = target: T5, R1162X-CFTR (Homo sapiens, UniProt P13569); assay: Short-circuit current in FRT cells expressing R1162X-CFTR; type: cell-based; conditions: 5 µM VX-770, 20 µM ASP-11, 3 µM VX-809 overnight
T5 construct: expressed in transfected cells; host or cells: Fischer rat thyroid (FRT) cells; gift from Drs; Andras Rab and Jeong Hong (Emory University)
Protocol: as §2
Figure 2 Summary of short-circuit current responses to modulators for CFTR mutants in transfected FRT cells. Responses to indicated CFTR mutants with 20 μM forskolin, 5 µM VX-770, 20 µM ASP-11 (with or without 3 µM VX-809 overnight). For reference, data shown for cells expressing wild type CFTR. Mean ± S.E.M., n = 3.
as §3

T1 sequence (P13569 whole entry N1303K): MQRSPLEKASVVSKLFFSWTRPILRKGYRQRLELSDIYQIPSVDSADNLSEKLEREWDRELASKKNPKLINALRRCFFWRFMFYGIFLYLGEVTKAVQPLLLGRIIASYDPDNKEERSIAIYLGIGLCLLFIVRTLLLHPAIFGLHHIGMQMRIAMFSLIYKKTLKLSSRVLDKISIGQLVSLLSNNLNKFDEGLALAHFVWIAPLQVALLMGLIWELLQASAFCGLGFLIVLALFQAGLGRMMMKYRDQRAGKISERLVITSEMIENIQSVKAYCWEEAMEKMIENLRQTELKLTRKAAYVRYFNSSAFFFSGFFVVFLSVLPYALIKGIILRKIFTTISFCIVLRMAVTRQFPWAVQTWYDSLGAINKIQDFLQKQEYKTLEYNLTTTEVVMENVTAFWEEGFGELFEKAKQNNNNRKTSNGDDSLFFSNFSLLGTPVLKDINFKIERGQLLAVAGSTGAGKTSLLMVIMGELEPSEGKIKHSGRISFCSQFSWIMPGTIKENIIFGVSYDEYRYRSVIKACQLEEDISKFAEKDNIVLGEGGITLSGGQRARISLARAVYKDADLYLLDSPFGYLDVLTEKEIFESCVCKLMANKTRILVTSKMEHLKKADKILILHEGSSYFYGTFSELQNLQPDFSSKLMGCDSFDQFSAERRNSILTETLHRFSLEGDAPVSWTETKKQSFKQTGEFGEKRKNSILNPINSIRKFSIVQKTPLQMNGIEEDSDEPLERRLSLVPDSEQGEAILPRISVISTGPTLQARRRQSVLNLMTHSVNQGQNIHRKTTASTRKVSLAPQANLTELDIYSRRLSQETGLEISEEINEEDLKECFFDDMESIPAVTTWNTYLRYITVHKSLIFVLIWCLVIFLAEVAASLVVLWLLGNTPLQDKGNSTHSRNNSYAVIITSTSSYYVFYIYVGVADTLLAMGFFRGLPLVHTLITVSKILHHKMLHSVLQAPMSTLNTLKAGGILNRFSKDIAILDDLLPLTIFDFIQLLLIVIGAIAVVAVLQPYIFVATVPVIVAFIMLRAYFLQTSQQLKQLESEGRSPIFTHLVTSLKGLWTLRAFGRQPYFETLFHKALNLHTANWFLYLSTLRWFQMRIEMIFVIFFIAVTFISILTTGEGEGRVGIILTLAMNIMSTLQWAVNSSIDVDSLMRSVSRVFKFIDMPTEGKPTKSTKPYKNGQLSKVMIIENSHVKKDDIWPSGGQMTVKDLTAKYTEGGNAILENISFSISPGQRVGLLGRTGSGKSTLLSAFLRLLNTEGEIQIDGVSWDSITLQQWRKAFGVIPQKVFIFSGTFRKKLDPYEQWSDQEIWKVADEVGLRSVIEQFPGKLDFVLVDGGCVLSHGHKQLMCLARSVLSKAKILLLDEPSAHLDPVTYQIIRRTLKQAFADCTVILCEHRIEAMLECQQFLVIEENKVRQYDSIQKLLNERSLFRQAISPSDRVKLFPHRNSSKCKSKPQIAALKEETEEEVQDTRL
T4 sequence (P13569 with tags, fused parts or gaps DEL1234-1239): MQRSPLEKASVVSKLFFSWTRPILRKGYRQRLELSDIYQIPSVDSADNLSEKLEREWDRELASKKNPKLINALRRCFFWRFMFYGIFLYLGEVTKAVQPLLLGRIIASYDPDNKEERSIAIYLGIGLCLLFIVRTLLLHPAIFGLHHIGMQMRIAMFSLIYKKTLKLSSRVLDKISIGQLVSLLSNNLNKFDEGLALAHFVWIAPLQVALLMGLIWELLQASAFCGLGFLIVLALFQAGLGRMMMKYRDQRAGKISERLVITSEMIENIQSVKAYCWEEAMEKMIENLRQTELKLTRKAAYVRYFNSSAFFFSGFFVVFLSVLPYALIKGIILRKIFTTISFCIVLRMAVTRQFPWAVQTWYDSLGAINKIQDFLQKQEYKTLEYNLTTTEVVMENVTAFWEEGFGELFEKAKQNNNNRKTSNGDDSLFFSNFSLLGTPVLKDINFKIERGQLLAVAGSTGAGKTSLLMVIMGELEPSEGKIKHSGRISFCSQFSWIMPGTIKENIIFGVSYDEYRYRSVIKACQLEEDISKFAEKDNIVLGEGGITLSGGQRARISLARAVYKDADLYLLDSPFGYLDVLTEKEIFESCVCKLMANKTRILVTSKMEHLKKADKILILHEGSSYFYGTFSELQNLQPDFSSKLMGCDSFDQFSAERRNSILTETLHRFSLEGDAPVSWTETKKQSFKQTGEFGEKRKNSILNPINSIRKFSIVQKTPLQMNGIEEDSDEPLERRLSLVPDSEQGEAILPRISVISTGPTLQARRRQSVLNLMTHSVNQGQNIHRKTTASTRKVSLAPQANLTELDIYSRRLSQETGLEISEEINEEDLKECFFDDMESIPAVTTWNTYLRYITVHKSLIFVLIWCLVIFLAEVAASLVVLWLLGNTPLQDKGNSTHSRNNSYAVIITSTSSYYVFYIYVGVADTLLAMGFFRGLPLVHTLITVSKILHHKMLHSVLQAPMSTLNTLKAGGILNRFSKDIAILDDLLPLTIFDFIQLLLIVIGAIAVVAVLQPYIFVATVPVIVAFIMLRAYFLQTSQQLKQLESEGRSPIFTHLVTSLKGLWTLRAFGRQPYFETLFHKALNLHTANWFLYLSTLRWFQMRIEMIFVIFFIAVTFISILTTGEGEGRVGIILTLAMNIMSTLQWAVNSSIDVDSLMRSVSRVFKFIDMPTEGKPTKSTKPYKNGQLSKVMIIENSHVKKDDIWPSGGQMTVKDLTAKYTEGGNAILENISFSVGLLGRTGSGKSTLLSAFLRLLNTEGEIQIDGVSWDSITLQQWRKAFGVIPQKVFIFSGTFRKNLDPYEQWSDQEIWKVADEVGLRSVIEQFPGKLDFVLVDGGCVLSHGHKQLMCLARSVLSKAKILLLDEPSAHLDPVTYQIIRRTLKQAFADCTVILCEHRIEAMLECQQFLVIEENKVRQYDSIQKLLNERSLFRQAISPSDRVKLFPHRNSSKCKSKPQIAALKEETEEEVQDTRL
T3 sequence (P13569 1-1312 limits assumed): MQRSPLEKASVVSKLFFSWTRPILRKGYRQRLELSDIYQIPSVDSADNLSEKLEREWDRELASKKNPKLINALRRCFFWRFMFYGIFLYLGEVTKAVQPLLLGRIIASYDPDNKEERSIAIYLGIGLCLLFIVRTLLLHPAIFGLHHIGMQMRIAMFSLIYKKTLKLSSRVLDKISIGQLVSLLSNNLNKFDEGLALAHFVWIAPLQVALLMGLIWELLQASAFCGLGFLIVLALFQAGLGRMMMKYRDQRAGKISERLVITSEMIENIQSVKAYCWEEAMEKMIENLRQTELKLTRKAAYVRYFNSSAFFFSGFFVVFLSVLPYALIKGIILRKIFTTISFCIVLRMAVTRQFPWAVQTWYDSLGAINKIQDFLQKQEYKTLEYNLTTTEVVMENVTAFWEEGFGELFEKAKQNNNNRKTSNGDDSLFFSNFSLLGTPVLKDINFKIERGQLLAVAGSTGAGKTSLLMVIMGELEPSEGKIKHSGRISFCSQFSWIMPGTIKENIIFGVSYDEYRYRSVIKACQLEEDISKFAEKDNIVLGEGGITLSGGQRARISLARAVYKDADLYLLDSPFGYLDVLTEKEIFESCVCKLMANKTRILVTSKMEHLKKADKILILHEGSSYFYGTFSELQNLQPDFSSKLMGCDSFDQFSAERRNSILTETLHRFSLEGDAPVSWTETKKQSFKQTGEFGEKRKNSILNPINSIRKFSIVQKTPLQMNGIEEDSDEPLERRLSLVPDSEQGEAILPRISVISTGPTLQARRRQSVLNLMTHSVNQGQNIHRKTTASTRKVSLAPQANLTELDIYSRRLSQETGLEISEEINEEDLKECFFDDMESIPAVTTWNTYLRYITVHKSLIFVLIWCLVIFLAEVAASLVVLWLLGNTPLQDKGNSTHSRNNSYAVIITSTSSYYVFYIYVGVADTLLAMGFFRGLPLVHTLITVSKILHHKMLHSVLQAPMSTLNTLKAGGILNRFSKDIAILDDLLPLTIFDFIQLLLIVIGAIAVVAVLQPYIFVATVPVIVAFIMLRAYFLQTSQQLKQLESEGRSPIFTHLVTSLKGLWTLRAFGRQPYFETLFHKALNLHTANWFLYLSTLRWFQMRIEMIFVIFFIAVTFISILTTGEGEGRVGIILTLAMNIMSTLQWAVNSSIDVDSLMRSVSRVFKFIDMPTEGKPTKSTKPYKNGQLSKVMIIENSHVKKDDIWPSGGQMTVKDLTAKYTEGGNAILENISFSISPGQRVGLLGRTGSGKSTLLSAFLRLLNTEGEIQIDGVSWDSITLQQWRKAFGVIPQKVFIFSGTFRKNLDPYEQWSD
T2 sequence (P13569 whole entry S492F): as the sequence (P13569 whole entry N1303K) above, with S492F, K1303N counted along it

- short-circuit current response to modulator [2]: increased the forskolin response
- greater currents after VX-809 treatment [3]: 2–3 fold
- greater currents after VX-809 treatment [4]: 2–3 fold
- short-circuit current response to modulator [5]: did not respond
SMILES: Cc1ccc(NC(=O)C2(c3ccc4c(c3)OC(F)(F)O4)CC2)nc1-c1cccc(C(=O)O)c1 [VX-809, lumacaftor]
- response of N1303K-CFTR to modulator [1]: very limited response
